Entries after “also recorded” stand apart in the source; their conditions may differ.
Experiments:
Assay type in all cases: cell-based, Chlamydomonas reinhardtii
[1] = test system: GSH1 overexpressing strain; assay: Starch production capacity / discharge of starch grains to outside of cells (clouding of culture solution, iodostarch reaction); conditions: BSO added to TAP medium, final concentration 8 mM
Method: (§1) The GSH1 overexpressing strain produced in Example 1 was cultured under a semi-heterotrophic condition with the use of tris-acetate-phosphate (TAP) medium having pH7 (see Proc. Natl. Acad. Sci. USA, 54, 1665-1669.), and a growth capacity and a starch production capacity of the GSH1 overexpressing strain were evaluated. A CC503 strain (hereinafter referred to as “parent strain (wild-type strain)”) which is a wild-type Chlamydomonas strain was used as a control.
L-Buthionine-sulfoximine (abbreviated as BSO (produced by Sigma-Aldrich Corporation, Model No. B2515) added to TAP medium in Samples 2 and 6 is an inhibitor for GSH synthesis.
(a) of FIG. 1 is a graph showing growth capacities of the respective GSH1 overexpressing strains, and (b) of FIG. 1 is a view showing states of respective culture solutions 309 hours after start of culturing. (a) of FIG. 2 is a graph showing growth capacities of respective parent strains (wild-type strains), and (b) of FIG. 2 is a view showing states of respective culture solutions 215 hours after start of culturing. […] The optical density represented by the vertical axis was measured by a device (manufactured by TAITEC CORPORATION, ODSensor-S/ODBox-A) for measuring an OD value on the basis of a transmission amount of infrared rays (950 nm). […]

[2] = test system: GSH1 overexpressing strain; assay: Flow cytometry of particle densities in the culture (TAP medium, semi-heterotrophic); conditions: addition of 8 mM BSO, 45 μE/m^2/sec, number of particles in 1 mL culture solution divided by the cube of 10
Method: as §1
(§2) Flow cytometry was carried out for more detailed analysis of the states of the GSH1 overexpressing strain of Sample 4 and the parent strain (wild-type strain) of Sample 8. Specifically, the cells of Samples 4 and 8 were irradiated with excitation light of 488 nm, and fluorescence intensity in the vicinity of 600 nm was measured. The fluorescence in the vicinity of 600 nm corresponds to chlorophyll fluorescence. Along with the chlorophyll fluorescence, fluorescent particles (produced by Beckman Coulter Inc., product name: Flow count) were used as an internal control for measuring a cell density. In this way, fluorescence in the range from 525 nm to 700 nm emitted by the excitation light of 488 nm was measured. Further, forward-scattered light and lateral-scattered light were measured so as to measure cell (particle) size and cell (particle) internal complexity.
(§3) Note that the number of cells (particles) shown in Tables 3 and 4, which is expressed by a value obtained by dividing the number of particles contained in 1 mL of the culture solution by the cube of 10, was found on the basis of the value of the internal control.

[3] = test system: parent strain (wild-type strain) CC503; assay: as above; conditions: addition of 8 mM BSO, 45 μE/m^2/sec, number of particles in 1 mL culture solution divided by the cube of 10
Method: as §1, §2, §3

Structure (SMILES): CCCCS(=N)(=O)CCC(N)C(=O)O [BSO, L-Buthionine-sulfoximine]
- discharge of starch to an outside of the cells [1]: starch was not discharged to an outside of the cells; also recorded: starch was not discharged into an outside of the cells
- density of particles which did not emit chlorophyll-derived fluorescence as a result of irradiation of excitation light (488 nm) (starch grains) [2]: 602
- density of particles which emitted chlorophyll-derived fluorescence as a result of irradiation of excitation light (488 nm) [2]: 4,228
- density of particles which did not emit chlorophyll-derived fluorescence as a result of irradiation of excitation light (488 nm) (starch grains) [3]: 27
- density of particles which emitted chlorophyll-derived fluorescence as a result of irradiation of excitation light (488 nm) [3]: 19,633
